Assay results taken from patent US12109220B2, “Compositions for use in the reduction of nociception in children” (SOCIETE DES PRODUITS NESTLE S.A., priority 2017, dated 2024).
Entries after “also recorded” stand apart in the source; their conditions may differ.

Biological target: GPR35 (Homo sapiens, UniProt Q9HC97)
Test: PathHunter β-Arrestin assay of GPR35 activation (DiscoverX)
Format: cell-based
Conditions: for activation of GPR35 (in words): single HMOs, highest concentration tested 10 mM; for EC50: cell based β-arrestin recruitment, 3x dilutions from 10 mM, duplicate
Description: Six human milk oligosaccharides (LNnT, LNT, 2-FL, diFL, 6′ SL and 3-SL) were sreened for their ability to activate the GPR35 receptor in an in vitro assay.
The GPR35 cell line was expanded from frozen stocks and cultured according to standard procedures. Cells were seeded in a total volume of 20 μL into white walled, 384-well microplates and incubated at 37° C. for the appropriate time prior to testing. All testing was done in duplicate.
HMO samples were shipped to DiscoverX as concentrated stocks in Phosphate Buffered saline. On the test day, a 5× compound working intermediate was prepared in PBS. Five μL of 5× sample was added to cells and incubated at room temperature for 3 to 5 hours.
Assay signal was generated through a single addition of 12.5 μL (50% v/v) of PathHunter Detection reagent cocktail, followed by one-hour incubation at room temperature. Microplates were read following signal generation with a PerkinElmer Envision™ instrument for chemiluminescent signal detection.
Zaprinast (which is known to be an activator of GPR35) was used as positive control.
Percentage activity was calculated using the following formula: % Activity=100%×(mean RLU of test sample−mean RLU of vehicle control)/(mean MAX control ligand−mean RLU of vehicle control).
Dose-responses were generated by iterative 3× dilutions of the highest concentration tested (10 mM).
The samples were diluted in 1×PBS (pH ˜7) at 5× concentrations and sent to DiscoverX. The GPR35 activation assay was performed as described in Example 2.

Chain of GPR35 (Q9HC97 whole entry): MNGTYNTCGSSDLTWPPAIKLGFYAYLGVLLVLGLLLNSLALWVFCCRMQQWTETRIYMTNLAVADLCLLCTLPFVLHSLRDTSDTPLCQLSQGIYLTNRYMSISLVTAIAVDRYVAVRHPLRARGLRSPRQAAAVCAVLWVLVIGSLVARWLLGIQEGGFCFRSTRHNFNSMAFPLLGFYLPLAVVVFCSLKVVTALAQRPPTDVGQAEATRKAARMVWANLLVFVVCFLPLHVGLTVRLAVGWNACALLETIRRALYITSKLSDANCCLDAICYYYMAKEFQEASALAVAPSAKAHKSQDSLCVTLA
Chain of GPR35 (P32121 whole entry partner): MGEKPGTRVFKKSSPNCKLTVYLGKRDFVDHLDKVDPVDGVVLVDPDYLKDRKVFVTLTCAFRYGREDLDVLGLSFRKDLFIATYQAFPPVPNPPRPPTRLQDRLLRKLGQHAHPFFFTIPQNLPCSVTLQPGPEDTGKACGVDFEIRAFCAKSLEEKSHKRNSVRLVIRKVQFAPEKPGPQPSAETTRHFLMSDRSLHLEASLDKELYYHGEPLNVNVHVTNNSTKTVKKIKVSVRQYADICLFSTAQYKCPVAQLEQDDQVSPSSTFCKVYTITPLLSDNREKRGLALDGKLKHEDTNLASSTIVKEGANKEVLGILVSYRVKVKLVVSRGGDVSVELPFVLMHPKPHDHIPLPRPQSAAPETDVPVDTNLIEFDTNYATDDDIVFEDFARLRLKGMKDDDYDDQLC

| Structure (SMILES) | activation of GPR35 (in words) | activation of GPR35 (in words) (listed as 3-SL) | EC50 | activation of GPR35 (in words) (listed as difucosyllactose) |
| --- | --- | --- | --- | --- |
| CC(=O)N[C@H]1[C@H](O[C@H]2[C@@H](O)[C@@H](CO)O[C@@H](O[C@H]3[C@H](O)[C@@H](O)C(O)O[C@@H]3CO)[C@@H]2O)O[C@H](CO)[C@@H](O[C@@H]2O[C@H](CO)[C@H](O)[C@H](O)[C@H]2O)[C@@H]1O (mixture of isomers) [LNnT, lacto-N-neotetraose] | No activation; also recorded: do not activate |  |  |  |
| CC(=O)N[C@H]1[C@H]([C@H](O)[C@H](O)CO)O[C@@](O[C@H]2[C@@H](O)[C@@H](CO)O[C@@H](O[C@H]3[C@H](O)[C@@H](O)C(O)O[C@@H]3CO)[C@@H]2O)(C(=O)O)C[C@@H]1O (stereo partly shown) [3SL, 3′-sialyllactose] | No activation | do not activate |  |  |
| CC(=O)N[C@H]1[C@H]([C@H](O)[C@H](O)CO)O[C@@](OC[C@H]2O[C@@H](O[C@H]3[C@H](O)[C@@H](O)[C@H](O)O[C@@H]3CO)[C@H](O)[C@@H](O)[C@H]2O)(C(=O)O)C[C@@H]1O [6′SL, 6′-sialyllactose] |  |  | 6.5 mM |  |
| CC(=O)N[C@H]1[C@H](O[C@H]2[C@@H](O)[C@@H](CO)O[C@@H](O[C@H]3[C@H](O)[C@@H](O)C(O)O[C@@H]3CO)[C@@H]2O)O[C@H](CO)[C@@H](O)[C@@H]1O[C@@H]1O[C@H](CO)[C@H](O)[C@H](O)[C@H]1O (stereo partly shown) [LNT, lacto-N-tetraose] |  |  | 4.5 mM |  |
| C[C@@H]1O[C@@H](O[C@H]2[C@H](O[C@H]3[C@H](O[C@@H]4O[C@@H](C)[C@@H](O)[C@@H](O)[C@@H]4O)[C@@H](O)C(O)O[C@@H]3CO)O[C@H](CO)[C@H](O)[C@@H]2O)[C@@H](O)[C@H](O)[C@@H]1O (stereo partly shown) [diFL, difucosyllactose] | No activation |  |  | do not activate |
